Measured values taken from patent US20220324835A1 (Nurix Therapeutics, Inc., priority 2018, published 2022).

Tests used:
[1] = target: T1, Cbl-b (Homo sapiens, UniProt Q13191); assay: Cbl-b activity assay (Cbl-b inhibition assay), TR-FRET of Cbl-b interaction with UbcH5B-Ub; format: biochemical; conditions: assay buffer with 100 mM NaCl, 60 nM Src kinase; read-out: Cbl-b activity IC50
Procedure: The ability of candidate compounds to inhibit Cbl-b activity was measured by monitoring the interaction of Cbl-b with UbcH5B-Ub in the presence of the candidate compound.
Fluorescently labeled UbcH5B-Ub was prepared by conjugating ubiquitin (Ub), labeled at its N-terminus with Bodipy-Fluorescein, to UbcH5B, an E2 enzyme, harboring a cysteine to lysine mutation at position 85. […] After incubation in the presence of the candidate compound, the plate was incubated for an additional 1.5 hours in the presence of 60 nM Src kinase with 1 mM ATP and 5 mM MgCl2 (final concentrations). […] The plate was incubated for 1 hour.
Column marked with an asterisk (*) were tested as described above with assay buffer containing 50 mM NaCl instead of 100 mM NaCl and 30 nM Src kinase instead of 60 nM Src kinase. The resulting data for the Cbl-b binding assay was solvent corrected and double referenced prior to analysis. All data were globally fit to a steady-state affinity and kinetic binding model where applicable). Fit parameters were derived from a 1:1 binding model using the Biacore T200 Evaluation Software V2.0 (GE Healthcare) (Table 2).

[2] = target: T1, Cbl-b; assay: Cbl-b inhibition assay (Cbl-b activity assay, FRET, Biological Example 1; 100 mM NaCl, 60 nM Src kinase); format: biochemical; conditions: upper bound stated in text lists; read-out: IC50 values in the Cbl-b inhibition assay of Biological Example 1
Source text: FIG. 1A and FIG. 1B show a series of diagrams depicting the activity assay utilized to assay inhibition of Cbl-b activity by a Cbl-b inhibitor. FIG. 1A: The activity assay mixture comprises an N-terminal biotinylated Avi-tagged Cbl-b, an E2 enzyme (i.e., UbcH5B) irreversibly conjugated to Bodipy-Fluorescein tagged ubiquitin (i.e., UbcH5B-Ub), a Src kinase, streptavidin-terbium, and assay buffer. Phosphorylation of Cbl-b by the Src kinase allows UbcH5B-Ub to bind to Cbl-b and bring the Bodipy-Fluorescein tagged ubiquitin in proximity to the streptavidin-terbium bound to the N-terminal biotinylated Avi-tagged Cbl-b. […] FIG. 1B: In the presence of a Cbl-b inhibitor, such as one described herein, Cbl-b is unable to bind UbcH5B-Ub. The lack of a FRET signal indicates Cbl-b is inhibited by the Cbl-b inhibitor. Ub indicates ubiquitin; N-Avi indicates biotinylated Avi-tag at the N-terminus of Cbl-b; inhibitor indicates Cbl-b inhibitor.
The lack of a FRET signal indicates Cbl-b is inhibited by the Cbl-b inhibitor. In FIG. 1A and FIG. 1B, Ub indicates ubiquitin; N-Avi indicates biotinylated Avi-tag at the N-terminus of Cbl-b; and inhibitor indicates Cbl-b inhibitor.

T1 sequence (Q13191 36-427): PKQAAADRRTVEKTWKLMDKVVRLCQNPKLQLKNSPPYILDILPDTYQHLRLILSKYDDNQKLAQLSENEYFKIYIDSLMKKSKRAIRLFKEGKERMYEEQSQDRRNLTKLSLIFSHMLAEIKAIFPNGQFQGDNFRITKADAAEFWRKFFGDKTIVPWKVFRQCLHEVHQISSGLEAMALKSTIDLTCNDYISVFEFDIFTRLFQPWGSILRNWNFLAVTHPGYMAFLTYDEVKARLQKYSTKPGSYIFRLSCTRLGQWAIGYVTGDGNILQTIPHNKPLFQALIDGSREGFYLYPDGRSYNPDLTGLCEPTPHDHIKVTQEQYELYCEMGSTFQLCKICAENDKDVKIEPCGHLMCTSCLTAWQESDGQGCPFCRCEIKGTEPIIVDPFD

Compound | IC50 [1] [µM] | IC50 [2] [µM]
CNC(=O)c1ccc2c(c1)C(=O)N(c1cc(C(C)Sc3nncn3C)ccn1)C2 (stereo not shown) [Compound 173, N-methyl-2-(4-[1-[(4-methyl-4H-1,2,4-triazol-3-yl)sulfanyl]ethyl]pyridin-2-yl)-3-oxo-2,3-dihydro-1H-isoindole-5-carboxamide] | 3 to 10 | ≤ 10
CC(Sc1nncn1C)c1cc(NCCO)nc(N2Cc3c(cccc3C(F)(F)F)C2=O)c1 (stereo not shown) [Compound 174, 2-[6-(2-hydroxyethylamino)-4-[1-[(4-methyl-1,2,4-triazol-3-yl)sulfanyl]ethyl]-2-pyridyl]-4-(trifluoromethyl)isoindolin-1-one] | 1 to 3 | ≤ 10
C[C@H](Cc1nncn1C)c1cccc(NC(=O)c2ccn(C)n2)c1 [Compound 197, (R)-1-methyl-N-(3-(1-(4-methyl-4H-1,2,4-triazol-3-yl)propan-2-yl)phenyl)-1H-pyrazole-3-carboxamide] | 1 to 3 | ≤ 10
Cc1conc1C[C@H](C)c1cccc(NC(=O)c2ccnc(C(F)(F)F)n2)c1 [Compound 213b, (S)-N-(3-(1-(4-methylisoxazol-3-yl)propan-2-yl)phenyl)-2-(trifluoromethyl)pyrimidine-4-carboxamide] | 3 to 10 | ≤ 10
Cc1ccn(CC(C)c2cccc(NC(=O)c3cccc(C(F)(F)F)n3)c2)n1 (stereo not shown) [Compound 216, N-(3-(1-(3-methyl-1H-pyrazol-1-yl)propan-2-yl)phenyl)-6-(trifluoromethyl)picolinamide] | 3 to 10 | ≤ 10
Cc1nnnn1CC(C)c1cccc(NC(=O)c2cccc(C(F)(F)F)n2)c1 (stereo not shown) [Compound 217, N-[3-[1-methyl-2-(5-methyltetrazol-1-yl)ethyl]phenyl]-6-(trifluoromethyl)pyridine-2-carboxamide] | > 10 | ≤ 10
Cc1cnnn1CC(C)c1cccc(NC(=O)c2cccc(C(F)(F)F)n2)c1 (stereo not shown) [Compound 218, N-[3-[1-methyl-2-(5-methyltriazol-1-yl)ethyl]phenyl]-6-(trifluoromethyl)pyridine-2-carboxamide] | 0.301 to 1 | ≤ 0.5
CC(Cn1[nH]cnc1=O)c1cccc(NC(=O)c2cccc(C(F)(F)F)n2)c1 (stereo not shown) [Compound 219, N-[3-[1-methyl-2-(3-oxo-1H-1,2,4-triazol-2-yl)ethyl]phenyl]-6-(trifluoromethyl)pyridine-2-carboxamide] | 3 to 10 | ≤ 10
C[C@H](Cc1nncn1C)c1cccc(NC(=O)c2cc(C(=O)NC3CCOC3)ccn2)c1 (stereo partly drawn) [Compound 228, N2-(3-((R)-1-(4-methyl-4H-1,2,4-triazol-3-yl)propan-2-yl)phenyl)-N4-(tetrahydrofuran-3-yl)pyridine-2,4-dicarboxamide] | 3 to 10 | ≤ 10
C[C@H](Cc1nncn1C)c1cccc(NC(=O)c2cc(C(=O)N3CC[C@@](C)(N)C3)ccn2)c1 [Compound 230, 4-((R)-3-amino-3-methylpyrrolidine-1-carbonyl)-N-(3-((R)-1-(4-methyl-4H-1,2,4-triazol-3-yl)propan-2-yl)phenyl)picolinamide 2,2,2-trifluoroacetate] | 3 to 10 | ≤ 10
C[C@H](Cc1nncn1C)c1cccc(NC(=O)c2cc(C(=O)N3CC(CO)C3)ccn2)c1 [Compound 232, 4-[3-(hydroxymethyl)azetidine-1-carbonyl]-N-[3-[(2R)-1-(4-methyl-4H-1,2,4-triazol-3-yl)propan-2-yl]phenyl]pyridine-2-carboxamide] | 1 to 3 | ≤ 10
C[C@H](Cc1nncn1C)c1cccc(NC(=O)c2cc(C(=O)N3CCC4(CCO4)C3)ccn2)c1 (stereo partly drawn) [Compound 237, N-[3-[(2R)-1-(4-methyl-4H-1,2,4-triazol-3-yl)propan-2-yl]phenyl]-4-[1-oxa-6-azaspiro[3.4]octane-6-carbonyl]pyridine-2-carboxamide] | 3 to 10 | ≤ 10
C[C@H](Cc1ncco1)c1cccc(N2Cc3c(cccc3C(F)(F)F)C2=O)c1 [Compound 261, (R)-2-(3-(1-(oxazol-2-yl)propan-2-yl)phenyl)-4-(trifluoromethyl)isoindolin-1-one] | 3 to 10 | ≤ 10
CC(Cc1nccn1C)c1cccc(N2Cc3c(cccc3C(F)(F)F)C2=O)c1 (stereo not shown) [Compound 267, 2-(3-(1-(1-methyl-1H-imidazol-2-yl)propan-2-yl)phenyl)-4-(trifluoromethyl)isoindolin-1-one] | 3 to 10 | ≤ 10
CC(Cc1nocc1CO)c1cccc(N2Cc3c(cccc3C(F)(F)F)C2=O)c1 (stereo not shown) [Compound 269, 2-(3-(1-(4-(hydroxymethyl)isoxazol-3-yl)propan-2-yl)phenyl)-4-(trifluoromethyl)isoindolin-1-one] | 1 to 3 | ≤ 10
C[C@H](Cc1n[nH]cc1CO)c1cccc(N2Cc3c(cccc3C(F)(F)F)C2=O)c1 [Compound 271b, (R)-2-(3-(1-(4-(hydroxymethyl)-1H-pyrazol-3-yl)propan-2-yl)phenyl)-4-(trifluoromethyl)isoindolin-1-one] | 1 to 3 | ≤ 10
CC(Cc1nncn1C)c1cc(F)cc(N2Cc3c(cccc3C(F)(F)F)C2=O)c1 (stereo not shown) [Compound 281] | 0.1 to 0.3 | ≤ 0.5
Cn1cnnc1CC(C)(C)c1cccc(NC(=O)c2ccnc(C(F)(F)F)n2)c1 [Compound 285, N-(3-(2-methyl-1-(4-methyl-4H-1,2,4-triazol-3-yl)propan-2-yl)phenyl)-2-(trifluoromethyl)pyrimidine-4-carboxamide] | 0.1 to 0.3 | ≤ 0.5
Cc1ccc(C(=O)Nc2cccc([C@H](C)[C@H](O)c3nncn3C)c2)nc1C1CC1 [Compound 288, Trans-6-cyclopropyl-N-(3-(1-hydroxy-1-(4-methyl-4H-1,2,4-triazol-3-yl)propan-2-yl)phenyl)-5-methylpicolinamide] | 3 to 10 | ≤ 10
COC(Cc1nncn1C)c1cccc(N2Cc3c(cccc3C(F)(F)F)C2=O)c1 (stereo not shown) [Compound 290, 2-(3-(1-methoxy-2-(4-methyl-4H-1,2,4-triazol-3-yl)ethyl)phenyl)-4-(trifluoromethyl)isoindolin-1-one] | 1 to 3 | ≤ 10
CCOC(Cc1nncn1C)c1cccc(N2Cc3c(cccc3C(F)(F)F)C2=O)c1 (stereo not shown) [Compound 291, 2-(3-(1-ethoxy-2-(4-methyl-4H-1,2,4-triazol-3-yl)ethyl)phenyl)-4-(trifluoromethyl)isoindolin-1-one] | 3 to 10 | ≤ 10
Cn1cnnc1C(F)(F)[C@@](C)(F)c1cccc(N2Cc3c(cccc3C(F)(F)F)C2=O)c1 [Compound 296b, (S)-2-(3-(1,1,2-trifluoro-1-(4-methyl-4H-1,2,4-triazol-3-yl)propan-2-yl)phenyl)-4-(trifluoromethyl)isoindolin-1-one] | 3 to 10 | ≤ 10
Cn1cnnc1CC(C)(O)c1cccc(N2Cc3c(cccc3C(F)(F)F)C2=O)c1 (stereo not shown) [Compound 297, 2-(3-(2-hydroxy-1-(4-methyl-4H-1,2,4-triazol-3-yl)propan-2-yl)phenyl)-4-(trifluoromethyl)isoindolin-1-one] | 3 to 10 | ≤ 10
C[C@@H]1CN(Cc2cc(C(=O)Nc3cccc(C4(Cc5nncn5C)COC4)c3)nc(C3CC3)c2)CCO1 [Compound 501, 6-cyclopropyl-N-(3-{3-[(4-methyl-1,2,4-triazol-3-yl)methyl]oxetan-3-yl}phenyl)-4-{[(2R)-2-methylmorpholin-4-yl]methyl}pyridine-2-carboxamide] | < 0.1 | ≤ 0.1
Cc1cc(C(=O)Nc2cccc(C3(Cc4[nH]ncc4C)COC3)c2)nc(C2CC2)n1 [Compound 510, 2-cyclopropyl-6-methyl-N-(3-{3-[(4-methyl-1H-pyrazol-3-yl)methyl]oxetan-3-yl}phenyl)pyrimidine-4-carboxamide] | < 0.1 | ≤ 0.1
Cc1cc(C(=O)Nc2cccc(C3=C(c4nncn4C)CCC3)c2)nc(C2CC2)n1 [Compound 518, 2-cyclopropyl-6-methyl-N-(3-(2-(4-methyl-4H-1,2,4-triazol-3-yl)cyclopent-1-en-1-yl)phenyl)pyrimidine-4-carboxamide] | 0.1 to 0.3 | ≤ 0.3
